# Reference: patent US20080206253A1, “Method For Preventing or Treating Pain in a Mammal” (priority 2005, published 2008)
# Entries after “also recorded” stand apart in the source; their conditions may differ. Marks after values point to notes of the source that are not given here.
# Tests used:
# p38α = assay: Western blot of spinal p38α protein expression after IT antisense; format: in vivo, rat; conditions: for p38α protein expression, % Expression Compared to Missense: spinal cord at day six, MS=100%, mean ±SEM n=6; for spinal p38α protein expression compared to missense (MS)-treated animals (in words): five days of IT bolus injections, p38α AS 10-30 μg (30 μg: P<0.05), p38β AS 10-20 μg
# Description: It has previously been shown that inhibition of spinal p38 MAP kinase prevents both inflammation-evoked hyperalgesia and nerve injury-induced allodynia. Ji et al., Neuron 36: 57-68, 2002; Schafers et al., J Neurosci 23: 2517-2521, 2003; Svensson et al., Neuroreport 14: 1153-1157, 2003a.; Svensson et al., J Neurochem 86: 1534-1544, 2003b. It still remains to be determined whether only one or both of the p38 isoforms, that are present in the spinal cord, are involved in modulation of spinal nociceptive processing. Since there is no specific p38 isoform inhibitors available, rats were treated intrathecally with isoform specific antisense oligonucleotides (AS) in order to knock down p38α and p38β respectively. […] There were no differences between the AS-, MS- or vehicle-treated groups in terms of weight gain or motor function. The specificity of the effects of these two antisense oligonucleotides was also examined. Western blot membranes were stripped and re-incubated the with the other p38 isoform antibody. […] In Table 1, antisense was given IT once daily for 5 days and protein expression assayed in spinal chord at day six compared to protein level detected in missense treated animals (MS=100%). Each group represents mean ±SEM, n=6 per group. (*) represents P<0.05 as compared to the missense group.
# Antisense oligonucleotides. Three oligonucleotides (a kind gift from ISIS Pharmaceuticals Inc.) with lengths of 20 nucleotides were employed in the study: ISIS 101757 (p38α AS) […], beginning at position 1081 in the rat p38α mRNA; ISIS 107211 (p38βAS) […], beginning at position 439 in the rat p38β mRNA; and ISIS141923 (an universe MS control) […]. These oligonucleotides were synthesized as 2′-methoxyethyl (MOE) phosphorothioate chimeric oligonucleotides in which the first and last five bases contained MOE modifications with a uniform phosphorothioate backbone. Butler et al., Diabetes 51: 1028-1034, 2002. The oligonucleotides were dissolved in artificial cerebrospinal fluid (ACSF) immediately prior to intrathecal administration. The ACSF contained (mM) 151.1 Na+, 2.6 K+, 0.9 Mg2+, 1.3 Ca 2+, 122.7 Cl−, 21.0 HCO3, 2.5 HPO4 and was bubbled with 95% O2/5% CO2 before use to adjust the final pH to 7.2. AS and MS (10-30 μg) was administrated in 10 μl ACSF followed by 10 μl saline daily for five days and behavioral experiments and spinal tissue collection performed on day six.
# Western blot. Prior to sacrifice, rats were deeply anesthetized and after decapitation the spinal cords were ejected from the vertebral column by a saline-filled syringe. The lumbar part of the spinal cord was immediately homogenized in extraction buffer (50 mM Tris buffer, pH 8.0, containing 0.5% Triton X-100, 150 mM NaCl, 1 mM EDTA, phosphatase and protease inhibitors) by sonication. The tissue extracts were subjected to denaturing NuPAGE 4-12% Bis-Tris gel electrophoresis and then transferred to nitrocellulose membranes (Micronic Separation Inc. Westborough, Mass.). After blocking nonspecific binding sites with 5% low-fat milk in PBS containing 0.1% Tween 20 (PBS-T) for 1 hour in room temperature, the membranes were incubated with antibodies overnight at 4° C. After washing, the antibody-protein complexes were probed with appropriate secondary antibodies labeled with horseradish peroxidase for 1 hr at room temperature and detected with chemiluminescent reagents (SuperSignal, Pierce, Rockford, Ill.). […]
# [1] = test system: rats, formalin-injected hind paw; assay: Formalin-induced flinching (paw formalin test); format: in vivo, rat
# Procedure: In recent work it was shown that inhibition of spinal p38 MAP kinase attenuated formalin-induced flinching. Svensson et al., J Neurochem 86: 1534-1544, 2003b. To examine the contribution of p38α and p38β in this experimental model of hyperalgesia, animals were injected with p38α, p38β AS or MS IT for five days. These animals were then examined on the formalin test. Unilateral intraplantar formalin solution (2.5%) caused a biphasic flinching pattern where the first 9 minutes are referred to as phase I and the following 50 minutes (min 10-60) as phase II. Yaksh et al., J Neurosci 21: 5847-5853, 2001a. The phase II flinching is considered to represent afferent input initiated spinal facilitation. Dickenson and Sullivan, Neurosci Lett 83: 207-211, 1987; Puig and Sorkin, Pain 64: 345-355, 1996. […] To further confirm the role of p38 to injury-induced pain behavior, a pharmacological inhibitor was also studied: SB203580, a p38α/β non-selective inhibitor.
# To quantify formalin induced flinching, an automated sensing system was employed. Yaksh et al., J Appl Physiol 90: 2386-2402, 2001b. Briefly, a soft metal band was placed on the hind paw of the animal being tested. Animals were allowed to acclimate in individual Plexiglas chambers for 30 min before being moved to a test chamber. Just before the animals were placed into the test chamber, they were briefly restrained in a cloth towel, and 2.5% formalin (50 μl) was injected into the dorsal side of the banded paw. Nociceptive behavior was quantified by automatically counting the incidences of spontaneous flinching or shaking of the injected paw. The flinches were counted for 1-min periods for 60 minutes and the flinch data are expressed as number of flinches per min and total flinches observed during phase I (0-9 min) and phase II (10-60 min).
Substance,"p38α protein expression, % Expression Compared to Missense (p38α; IT antisense 10 μg once daily for 5 days) [%]","p38α protein expression, % Expression Compared to Missense (p38α; IT antisense 30 μg once daily for 5 days)",spinal p38α protein expression compared to missense (MS)-treated animals (in words) (p38α),"total number of flinches during phase I or II ([1]; IT oligonucleotide daily for 5 days, 2.5% formalin into paw, compared with IT saline or MS)","p38α protein expression, % Expression Compared to Missense (p38α; IT antisense 20 μg once daily for 5 days)","number of flinches during phase two ([1]; IT p38β AS (3-20 μg) daily for 5 days, compared to saline and MS treated animals, P<0.05 (10 and 20 μg))"
"p38α AS: 20-nucleotide 2′-MOE phosphorothioate chimeric antisense AGGTGCTCAGGACTCCATTT, beginning at position 1081 in the rat p38α mRNA (all phosphorothioate, sugars by position and methylation of C not given here; 2'-MOE chimeric (gapmer) antisense)",59 ± 26,39 ± 8* %,significant down-regulation; also recorded: knocked down,did not differ; also recorded: no statistical difference,,
"p38β AS: 20-nucleotide 2′-MOE phosphorothioate chimeric antisense GTATGTCCTCCTCGCGTGGA, beginning at position 439 in the rat p38β mRNA (all phosphorothioate, sugars by position and methylation of C not given here; 2'-MOE chimeric (gapmer) antisense)",,,somewhat increased,,205 ± 65* %,statistical significant reduction; also recorded: statistically different
